Data on 19 compounds can be found in ChEMBL document CHEMBL1124100, “Structure-activity profile of a series of novel triazoloquinazoline adenosine antagonists” (J Med Chem, 1988).

Molecules are shown by their SMILES.

For assay [1], the species on record is Cavia porcellus. Nature of the assay: Inhibition of 2-chloroadenosine-induced relaxation in histamine-contracted guinea pig trachea. It counts as functional, organism-based.
A short description of assay [2]: (§1) Ratio of Ki at A2 to Ki at A1 receptors.
The next assay addresses T1, Adenosine receptor A1 (Rattus norvegicus, UniProt P25099).
T1 sequence (P25099 whole entry): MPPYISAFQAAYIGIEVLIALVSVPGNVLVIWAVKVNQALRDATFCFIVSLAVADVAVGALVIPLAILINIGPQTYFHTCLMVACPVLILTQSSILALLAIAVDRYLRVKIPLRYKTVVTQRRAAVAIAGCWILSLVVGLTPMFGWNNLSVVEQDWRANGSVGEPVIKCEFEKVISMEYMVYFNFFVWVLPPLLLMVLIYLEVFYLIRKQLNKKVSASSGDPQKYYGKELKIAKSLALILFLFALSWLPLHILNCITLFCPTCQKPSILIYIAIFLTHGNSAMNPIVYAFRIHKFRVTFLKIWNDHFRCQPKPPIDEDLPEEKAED
Nature of the assay: Inhibition of binding towards adenosine A1 receptor using [3H]N-cyclohexyladenosine ([3H]CHA) in rat whole brain membranes. It counts as cell membranes.

Another assay deals with Adenosine A2 receptor (Rattus norvegicus, UniProt P29276+P30543).
For assay [3], the species on record is Cavia porcellus. Nature of the assay: In vitro inhibition of adenylate cyclase activity of synaptoneurosomes from guinea pig cerebral cortex. It counts as functional.
For assay [4], the target named is T2, Adenosine receptor A1 (Rattus norvegicus) (UniProt P25099).
T2 sequence (whole entry): T1 sequence (P25099 whole entry)
Described as §1.

Description for Adenosine A2 receptor: Inhibition of binding to Adenosine-2 receptor using [3H]NECA in rat striatum

`CS(=O)(=O)O.Nc1nc2ccc(Cl)cc2c2nc(-c3ccoc3)nn12`: the IC50 was greater than 1 µM in the assay listed under Cavia porcellus [1], 0.295 µM at Adenosine receptor A1, 0.145 µM against Adenosine A2 receptor and 0.079 µM in the assay listed under Cavia porcellus [3]. Moreover, the Ratio in assay [2] was found to be 0.49.

`OCCNc1nc2ccc(Cl)cc2c2nc(-c3ccco3)nn12`: the IC50 was greater than 1 µM in the assay listed under Cavia porcellus [1], 0.021 µM on Adenosine receptor A1 and 0.056 µM at Adenosine A2 receptor. Also, the Ratio in assay [4] was 2.7.

Regarding `Nc1nc2ccc(O)cc2c2nc(-c3ccco3)nn12`, the IC50 came out at 1 µM in the assay filed under Cavia porcellus [1], 0.0095 µM on Adenosine receptor A1 and 0.0055 µM on Adenosine A2 receptor. Moreover, the Ratio in assay [4] is 0.58.

In the case of `Nc1nc2ccc(OCc3ccccc3)cc2c2nc(-c3ccco3)nn12`, the results for the IC50 in the assay filed under Cavia porcellus [1], on Adenosine receptor A1 and on Adenosine A2 receptor were greater than 10 µM, 0.145 µM and 1.29 µM, respectively. The Ratio in assay [4] stood at 8.9.

Turning to `COc1ccc2nc(N)n3nc(-c4ccco4)nc3c2c1`, the IC50 in the assay listed under Cavia porcellus [1] was greater than 10 µM; at Adenosine receptor A1 it was 0.031 µM; against Adenosine A2 receptor it was 0.019 µM. Further, the Ratio in assay [4] is 0.61.

`CC(C)(C)Nc1nc2ccc(Cl)cc2c2nc(-c3ccco3)nn12`: the IC50 was greater than 1 µM in the assay listed under Cavia porcellus [1], greater than 10 µM on Adenosine receptor A1 and greater than 10 µM against Adenosine A2 receptor.

On to `CS(=O)(=O)O.Nc1nc2ccc(Cl)cc2c2nc(-c3ccco3)nn12`, for which the IC50 in the assay filed under Cavia porcellus [1] was determined as 0.003 µM; on Adenosine A2 receptor, 0.0033 µM.

Consider `Nc1nc2ccccc2c2nc(-c3ccco3)nn12`, for which the IC50 in the assay listed under Cavia porcellus [1] turned out to be 0.1 µM; at Adenosine receptor A1, 0.038 µM; on Adenosine A2 receptor it was 0.027 µM; in the assay filed under Cavia porcellus [3] it was 0.04 µM. Moreover, the Ratio in assay [4] came out at 0.71.

`CS(=O)(=O)O.Cn1c(=N)n2nc(-c3ccco3)nc2c2ccccc21`: the IC50 in the assay filed under Cavia porcellus [1] is greater than 1 µM; at Adenosine receptor A1, 1.22 µM; on Adenosine A2 receptor, 2.914 µM; in the assay filed under Cavia porcellus [3] it was 1.48 µM. For the same compound, in assay [4], the Ratio was determined as 2.4.

As to `Nc1nc2ccc(Cl)cc2c2nc(C3CCCO3)nn12` (stereo unspecified), the IC50 in the assay filed under Cavia porcellus [1] is greater than 1 µM; on Adenosine receptor A1 it was 0.827 µM; against Adenosine A2 receptor, 1.58 µM; in the assay listed under Cavia porcellus [3], 0.48 µM. For the same compound, the Ratio in assay [4] worked out at 1.9.

As for `Cn1c(=O)c2nc[nH]c2n(C)c1=O` [THEOPHYLLINE], the IC50 in the assay filed under Cavia porcellus [1] was determined as 3 µM; in the assay listed under Cavia porcellus [3], 10 µM.

On to `CC(C)Nc1nc2ccc(Cl)cc2c2nc(-c3ccco3)nn12`, for which the IC50 was greater than 1 µM in the assay filed under Cavia porcellus [1], 0.022 µM on Adenosine receptor A1, 0.179 µM against Adenosine A2 receptor and 0.4 µM in the assay filed under Cavia porcellus [3]. Besides, in assay [4], the Ratio is 8.2.

Turning to `CS(=O)(=O)O.Nc1nc2ccc(Cl)cc2c2nc(-c3cccs3)nn12`, the IC50 in the assay filed under Cavia porcellus [1] is greater than 1 µM; at Adenosine receptor A1 it was 0.324 µM; at Adenosine A2 receptor, 0.116 µM; in the assay filed under Cavia porcellus [3], 0.2 µM. In addition, in assay [4], the Ratio came out at 0.36.

For the compound `CCC(C)Nc1nc2ccc(Cl)cc2c2nc(-c3ccco3)nn12.CS(=O)(=O)O` (stereo unspecified), the IC50 in the assay listed under Cavia porcellus [1] is greater than 1 µM; on Adenosine receptor A1, 0.061 µM; at Adenosine A2 receptor, 0.158 µM. In addition, in assay [4], the Ratio was 2.6.

For the compound `CS(=O)(=O)O.Nc1nc2ccc(Cl)cc2c2nc(-c3ccc[nH]3)nn12`, the results for the IC50 in the assay listed under Cavia porcellus [1], on Adenosine receptor A1 and on Adenosine A2 receptor were greater than 1 µM, 0.61 µM and 1.205 µM, respectively. In addition, in assay [4], the Ratio amounted to 2.

Take `CNc1nc2ccc(Cl)cc2c2nc(-c3ccco3)nn12`: the IC50 is greater than 1 µM in the assay filed under Cavia porcellus [1], 0.089 µM at Adenosine receptor A1 and 0.061 µM against Adenosine A2 receptor. For the same compound, in assay [4], the Ratio worked out at 0.69.

For the compound `Nc1nc2ccc(Cl)cc2c2nc(-c3ccc(Br)o3)nn12`, the IC50 was greater than 1 µM in the assay filed under Cavia porcellus [1], 1.57 µM on Adenosine receptor A1 and 0.531 µM at Adenosine A2 receptor. Besides, the Ratio in assay [4] is 0.34.

For `CN(C)c1nc2ccc(Cl)cc2c2nc(-c3ccco3)nn12`, the IC50 in the assay listed under Cavia porcellus [1] is greater than 1 µM; on Adenosine receptor A1, greater than 10 µM; on Adenosine A2 receptor, greater than 10 µM; in the assay listed under Cavia porcellus [3], greater than 1 µM.

As for `Oc1nc2ccc(Cl)cc2c2nc(-c3ccco3)nn12`, the IC50 in the assay listed under Cavia porcellus [1] is greater than 1 µM; on Adenosine receptor A1, 10 µM; on Adenosine A2 receptor, greater than 10 µM.

One may read the IC50 as the concentration needed to halve the response being measured. Read a low IC50 as greater potency.
